Measurements as given in patent US20020028938A1, “Prostaglandin endoperoxide H synthase biosynthesis inhibitors” (priority 1997, published 2002).

Assays:
[1] = biological target: T1, recombinant human Cox-1 (r-hu Cox1) (Homo sapiens, UniProt P23219); assay: Recombinant human PGHS-1 enzyme assay (RHUCX1); format: biochemical
T1 construct: made in house; host or cells: baculovirus/Sf9 insect cells (microsomes)
How it was run: (§1)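 PGE2 formed with and without drug quantified by EIA against matrix-matched standards; percent inhibition relative to control mean, IC50 by linear regression.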

[2] = biological target: T2, recombinant human Cox-2 (r-hu Cox-2) (Homo sapiens, UniProt P35354); assay: Recombinant human PGHS-2 enzyme assay (RHUCX2); format: biochemical; conditions: for IC50: read-out: RHUCX2 IC50 (parenthetical value)
T2 construct: made in house; host or cells: baculovirus/Sf9 insect cells (microsomes)
T2 sequence (P35354 18-604): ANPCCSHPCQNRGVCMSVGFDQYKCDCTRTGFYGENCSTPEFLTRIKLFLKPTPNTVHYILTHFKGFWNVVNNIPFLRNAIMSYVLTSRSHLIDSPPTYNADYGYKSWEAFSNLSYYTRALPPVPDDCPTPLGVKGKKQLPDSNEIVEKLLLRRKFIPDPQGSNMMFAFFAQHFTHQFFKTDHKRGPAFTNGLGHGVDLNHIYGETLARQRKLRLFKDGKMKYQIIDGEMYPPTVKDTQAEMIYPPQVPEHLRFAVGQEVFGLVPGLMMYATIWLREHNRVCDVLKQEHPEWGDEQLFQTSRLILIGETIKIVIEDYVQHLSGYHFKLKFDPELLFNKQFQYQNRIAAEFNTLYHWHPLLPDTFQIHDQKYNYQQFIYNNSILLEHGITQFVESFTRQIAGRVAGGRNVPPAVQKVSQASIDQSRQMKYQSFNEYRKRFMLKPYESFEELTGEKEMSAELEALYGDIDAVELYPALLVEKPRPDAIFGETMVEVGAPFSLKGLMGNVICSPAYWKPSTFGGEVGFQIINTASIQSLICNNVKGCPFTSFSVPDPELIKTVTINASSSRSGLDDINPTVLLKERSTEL
How it was run: as §1

[3] = read-out: RHUCX1 % Inh. at Dose
[4] = read-out: RHUCX2 % Inh. at Dose

T1 sequence (P23219 24-599): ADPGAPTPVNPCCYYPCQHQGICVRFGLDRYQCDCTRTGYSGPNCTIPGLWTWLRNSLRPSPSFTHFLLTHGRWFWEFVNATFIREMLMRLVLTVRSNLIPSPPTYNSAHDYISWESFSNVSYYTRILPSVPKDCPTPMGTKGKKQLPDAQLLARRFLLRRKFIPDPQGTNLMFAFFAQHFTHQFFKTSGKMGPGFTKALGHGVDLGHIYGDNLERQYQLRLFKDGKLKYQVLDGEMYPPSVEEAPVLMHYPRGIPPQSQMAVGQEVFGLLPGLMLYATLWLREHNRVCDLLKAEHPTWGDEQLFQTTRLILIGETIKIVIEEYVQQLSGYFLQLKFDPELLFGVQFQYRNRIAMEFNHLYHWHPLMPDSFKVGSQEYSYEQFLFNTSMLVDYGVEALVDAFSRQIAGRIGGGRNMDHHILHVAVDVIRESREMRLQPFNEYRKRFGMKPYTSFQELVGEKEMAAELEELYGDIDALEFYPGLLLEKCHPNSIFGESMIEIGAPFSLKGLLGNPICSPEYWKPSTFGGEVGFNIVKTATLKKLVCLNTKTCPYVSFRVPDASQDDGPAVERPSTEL

SMILES: CS(=O)(=O)c1ccc(-c2cnn(-c3cccc(Cl)c3)c(=O)c2OCc2ccccc2)cc1 [Example 374, 2-(3-Chlorophenyl)-4-(benzyloxy)-5-[4-(methylsulfonyl)phenyl]-3(2H)-pyridazinone]
- inhibition at 100 µM [1, 3]: 2%
- IC50 [2]: 20 nM
- melting point: 110 to 113 °C

SMILES: CS(=O)(=O)c1ccc(-c2cnn(-c3ccc(F)cc3)c(=O)c2N2CCCCC2)cc1 [Example 355, 2-(4-Fluorophenyl)-4-(1-piperidinyl)-5-[4-(methylsulfonyl)phenyl]-3(2H)-pyridazinone]
- inhibition at 100 µM [1, 3]: 0%
- inhibition at 0.1 µM [2, 4]: 46%
- inhibition at 1 µM [2, 4]: 66%
- inhibition at 10 µM ([2]; 10 μM, read-out: RHUCX2 % Inh. at Dose): 79%
- melting point: 80 to 100 °C

SMILES: CC(C)=CCOc1c(-c2ccc(S(C)(=O)=O)cc2)cnn(-c2cccc(Cl)c2)c1=O [Example 423, 2-(3-Chlorophenyl)-4-(3-methyl-2-butenoxy)-5-[4-(methylsulfonyl)phenyl]-3(2H)-pyridazinone]
- inhibition at 100 µM [1, 3]: 0%
- inhibition at 0.01 µM [2, 4]: 36%
- inhibition at 0.1 µM [2, 4]: 68%
- inhibition at 1 µM [2, 4]: 87%
- melting point: 113 to 115 °C

SMILES: CS(=O)(=O)c1ccc(-c2cnn(CC3CC3)c(=O)c2-c2ccc(F)cc2)cc1 [Example 26, 2-(Cyclopropylmethyl)-4-(4-fluorophenyl)-5-[4-(methylsulfonyl)phenyl]-3(2H)-pyridazinone]
- inhibition at 100 µM [1, 3]: 10%
- inhibition at 0.01 µM [2, 4]: 44%
- inhibition at 0.1 µM [2, 4]: 44%
- inhibition at 1 µM [2, 4]: 91%
- melting point: 118 to 121 °C

SMILES: CS(=O)(=O)c1ccc(-c2cnn(-c3cc(F)cc(F)c3)c(=O)c2Oc2ccc(F)cc2)cc1 [Example 111, 2-(3,5-Difluorophenyl)-4-(4-fluorophenoxy)-5-[4-(methylsulfonyl)phenyl]-3(2H)-pyridazinone]
- inhibition at 100 µM [1, 3]: 13%
- IC50 [2]: 52 nM
- melting point: 209 to 211 °C

SMILES: CC(c1cccc(F)c1)n1ncc(-c2ccc(S(N)(=O)=O)cc2)c(-c2ccc(F)cc2)c1=O (stereo not drawn) [Example 144, 2-(α-Methyl-3-fluorobenzyl)-4-(4-fluorophenyl)-5-[4-(aminosulfonyl)phenyl]-3(2H)-pyridazinone]
- IC50 ([1]; read-out: RHUCX1 IC50 (parenthetical value)): 58 nM
- inhibition at 0.01 µM [2, 4]: 65%
- inhibition at 0.1 µM [2, 4]: 78%
- inhibition at 1 µM [2, 4]: 88%
- melting point: 192 to 194 °C

SMILES: CS(=O)(=O)c1ccc(-c2cnn(-c3cccc(Cl)c3)c(=O)c2Cc2ccc(F)cc2)cc1 [Example 369, 2-(3-Chlorophenyl)-4-(4-fluorobenzyl)-5-[4-(methylsulfonyl)phenyl]-3(2H)-pyridazinone]
- inhibition at 100 µM [1, 3]: 0%
- inhibition at 0.1 µM [2, 4]: 48%
- inhibition at 1 µM [2, 4]: 70%
- melting point: 183 to 185 °C

SMILES: CS(=O)(=O)c1ccc(-c2cnn(CC=Cc3ccccc3)c(=O)c2-c2ccc(F)cc2)cc1 [Example 36, 2-(3-Phenyl-2-propenyl)-4-(4-fluorophenyl)-5-[4-(methylsulfonyl)phenyl]-3(2H)-pyridazinone]
- inhibition at 10 µM ([1]; 10 μM, read-out: RHUCX1 % Inh. at Dose): 21%
- IC50 [2]: 570 nM
- melting point: 165 to 167 °C

SMILES: CS(=O)(=O)c1ccc(-c2cnn(Cc3ncc(Cl)s3)c(=O)c2-c2ccc(F)cc2)cc1 [Example 39, 2-(5-Chlorothiazol-2-ylmethyl)-4-(4-fluorophenyl)-5-[4-(methylsulfonyl)phenyl]-3(2H)-pyridazinone]
- inhibition at 100 µM [1, 3]: 0%
- IC50 [2]: 440 nM
- melting point: 185 to 186 °C

SMILES: CS(=O)(=O)c1ccc(-c2cnn(CC(F)(F)F)c(=O)c2C2CCCCC2)cc1 [Example 240, 2-(2,2,2-Trifluoroethyl)-4-cyclohexyl-5-[4-(methylsulfonyl)phenyl]-3(2H)-pyridazinone]
- inhibition at 100 µM [1, 3]: 14%
- IC50 [2]: 297 nM
- melting point: 215 to 218 °C

SMILES: C=C(C)CCOc1c(-c2ccc(S(C)(=O)=O)cc2)cnn(-c2ccc(F)cc2)c1=O [Example 425, 2-(4-Fluorophenyl)-4-(3-methyl-3-butenoxy)-5-[4-(methylsulfonyl)phenyl]-3(2H)-pyridazinone]
- inhibition at 100 µM [1, 3]: 12%
- inhibition at 0.01 µM [2, 4]: 31%
- inhibition at 0.1 µM [2, 4]: 69%
- melting point: 109 to 111 °C
